Results from US11377442B2, “Small molecule agonists and antagonists of NR2F6 activity” (ZANDER THERAPEUTICS, INC., priority 2016, dated 2022).
Like-named read-outs stand apart in the source and are kept apart here. Blank lines part the entries; values can stand above or below the compound they belong to.

Key:
Assay type in all cases: cell-based
Renilla = Renilla signal in NR2F6 agonist screening, cmpd/DMSO; details: Renilla, F4
NR2F6 LBD = target: T1, NR2F6 LBD (Homo sapiens, UniProt P10588); assay: NR2F6 LBD transient transfection; details: LBD
T1 construct: expressed in transfected cells
T1 sequence (P10588 165-393 limits assumed): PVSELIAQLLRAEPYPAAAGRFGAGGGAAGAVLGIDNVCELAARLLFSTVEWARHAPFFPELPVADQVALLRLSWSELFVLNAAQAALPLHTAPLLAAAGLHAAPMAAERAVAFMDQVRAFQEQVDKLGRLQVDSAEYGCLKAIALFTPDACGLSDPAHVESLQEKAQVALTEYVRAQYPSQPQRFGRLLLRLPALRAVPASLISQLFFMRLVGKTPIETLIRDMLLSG
Procedure: FIGS. 27A and 27B show NR2F6 and LBD transient transfection, respectively, for Compound D28. Higher concentrations were excluded due to lower signal (tox effect). FIGS. 27C and 27D show NR2F6 and LBD transient transfection at different concentrations for different compounds. 9 compounds were tested on LBD transfected cells (40, 10, 2 and 0.5 μM, 4 replicates). FIGS. 27E and 27F show toxicity of Compound D28. 9 compounds were tested for cytotoxicity on LBD transfected cells (40, 10, 2 and 0.5 μM, 4 replicates). […] Cytotoxicity normalized to DMSO is shown in FIG. 27F (0% cytotoxicity corresponds to DMSO signal, 100%—zero signal).
FIGS. 34A and 34B show NR2F6 LBD transient transfection for Compound E21. 9 compounds were tested on LBD transfected cells (40, 10, 2 and 0.5 μM, 4 replicates). FIGS. 34C and 34D show NR2F6 and LBD transient transfection at different concentrations for different compounds. 9 compounds were tested on LBD transfected cells (40, 10, 2 and 0.5 μM, 4 replicates). […] Cytotoxicity normalized to DMSO is shown in FIG. 34D (0% cytotoxicity corresponds to DMSO signal, 100%—zero signal). All compounds were tested at 5, 10, 25 and 50 uM in duplicates. Dog PBMC (1×10^6 cells/mL) were activated by 10 ng/mL PMA+500 ng/mL ionomycin. Data were normalized to controls with (100%)/without (0%) PMA+ionomycin activation.
FIGS. 39A and 39B show NR2F6 LBD transient transfection for Compound F1. 9 compounds were tested on LBD transfected cells (40, 10, 2 and 0.5 μM, 4 replicates). FIGS. 39C and 39D show toxicity of NR2F6 LBD transient transfection. 9 compounds were tested for cytotoxicity on LBD transfected cells (40, 10, 2 and 0.5 μM, 4 replicates). Tox effect causes lower signal compared to DMSO. Cytotoxicity normalized to DMSO is shown in FIG. 39D (0% cytotoxicity corresponds to DMSO signal, 100%—zero signal).

HEK293 pGL4 = assay: Firefly_pGL signal, cmpd/DMSO (pGL4 control cells); details: Homo sapiens
NR2F6 = target: T2, NR2F6 (Homo sapiens, UniProt P10588); assay: NR2F6 agonist screening, Firefly signal cmpd/DMSO
T2 construct: expressed in transfected cells; also transient transfection
T2 sequence (P10588 1-404): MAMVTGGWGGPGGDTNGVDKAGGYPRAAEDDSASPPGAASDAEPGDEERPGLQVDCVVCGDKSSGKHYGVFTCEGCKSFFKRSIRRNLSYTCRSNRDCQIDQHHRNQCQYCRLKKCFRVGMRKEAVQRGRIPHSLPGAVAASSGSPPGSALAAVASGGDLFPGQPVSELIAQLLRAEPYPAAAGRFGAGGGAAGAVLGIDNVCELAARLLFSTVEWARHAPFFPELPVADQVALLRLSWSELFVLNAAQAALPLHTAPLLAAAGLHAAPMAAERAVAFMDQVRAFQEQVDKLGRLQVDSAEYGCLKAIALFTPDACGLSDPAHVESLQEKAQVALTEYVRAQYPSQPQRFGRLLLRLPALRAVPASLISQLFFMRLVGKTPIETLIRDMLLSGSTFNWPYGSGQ

[1] = read-out: Renilla, F4, cmpd/DMSO (mean)
[2] = 1% FBS, read-out: Renilla, F4, 1% FBS, cmpd/DMSO (mean)
[3] = 10% FBS, read-out: Renilla, F4, 10% FBS, cmpd/DMSO (mean)
[4] = HEK293, 0.5 uM, pGL4, read-out: Firefly pGL4, cmpd/DMSO (mean)
[5] = HEK293, 2 uM, pGL4, read-out: Firefly pGL4, cmpd/DMSO (mean)
[6] = HEK293, 10 uM, pGL4, read-out: Firefly pGL4, cmpd/DMSO (mean)
[7] = HEK293, 40 uM, pGL4, read-out: Firefly pGL4, cmpd/DMSO (mean)
[8] = HEK293, pGL4, 1% FBS, 0.5 uM, read-out: Firefly, pGL4, 1% FBS, cmpd/DMSO (mean)
[9] = HEK293, pGL4, 1% FBS, 2 uM, read-out: Firefly, pGL4, 1% FBS, cmpd/DMSO (mean)
[10] = HEK293, pGL4, 1% FBS, 10 uM, read-out: Firefly, pGL4, 1% FBS, cmpd/DMSO (mean)
[11] = HEK293, pGL4, 1% FBS, 40 uM, read-out: Firefly, pGL4, 1% FBS, cmpd/DMSO (mean)
[12] = HEK293, pGL4, 10% FBS, 0.5 uM, read-out: Firefly, pGL4, 10% FBS, cmpd/DMSO (mean)
[13] = HEK293, pGL4, 10% FBS, 2 uM, read-out: Firefly, pGL4, 10% FBS, cmpd/DMSO (mean)
[14] = HEK293, pGL4, 10% FBS, 10 uM, read-out: Firefly, pGL4, 10% FBS, cmpd/DMSO (mean)
[15] = HEK293, pGL4, 10% FBS, 40 uM, read-out: Firefly, pGL4, 10% FBS, cmpd/DMSO (mean)

Firefly LBD, cmpd/DMSO (mean) (NR2F6 LBD; 0.5 uM): 1.1
Firefly LBD, cmpd/DMSO (mean) (NR2F6 LBD; 2 uM): 1.4
Firefly LBD, cmpd/DMSO (mean) (NR2F6 LBD; 10 uM): 3.0
Firefly LBD, cmpd/DMSO (mean) (NR2F6 LBD; 40 uM): 0.8
Firefly F4, cmpd/DMSO (mean) (NR2F6; 0.5 uM): 1.7
Firefly F4, cmpd/DMSO (mean) (NR2F6; 2 uM): 1.9
Firefly F4, cmpd/DMSO (mean) (NR2F6; 10 uM): 3.5
Firefly F4, cmpd/DMSO (mean) (NR2F6; 40 uM): 1.4
F4, Firefly/Renilla for S/B(F4) > 3 (NR2F6; 1% FBS, 10 uM): 2.5
Firefly, F4/pGL4 for S/B(F4) > 3 (NR2F6; 1% FBS, 10 uM): 2.3
F4, Firefly/Renilla for S/B(F4) > 3 (NR2F6; 10% FBS, 40 uM): 2.5
Firefly, F4/pGL4 for S/B(F4) > 3 (NR2F6; 10% FBS, 40 uM): 2.3
Firefly, F4, 1% FBS, cmpd/DMSO (mean) (NR2F6; 1% FBS, 0.5 uM): 0.8
Firefly, F4, 1% FBS, cmpd/DMSO (mean) (NR2F6; 1% FBS, 2 uM): 1.4
Firefly, F4, 1% FBS, cmpd/DMSO (mean) (NR2F6; 1% FBS, 10 uM): 3.8
Firefly, F4, 1% FBS, cmpd/DMSO (mean) (NR2F6; 1% FBS, 40 uM): 0.8
Firefly, F4, 10% FBS, cmpd/DMSO (mean) (NR2F6; 10% FBS, 0.5 uM): 1.3
Firefly, F4, 10% FBS, cmpd/DMSO (mean) (NR2F6; 10% FBS, 2 uM): 1.0
Firefly, F4, 10% FBS, cmpd/DMSO (mean) (NR2F6; 10% FBS, 10 uM): 2.4
Firefly, F4, 10% FBS, cmpd/DMSO (mean) (NR2F6; 10% FBS, 40 uM): 5.9
SMILES: CC(C)CCN[C@H]1CS(=O)(=O)C[C@@H]1S(=O)(=O)c1cccs1 [Compound D110]
fold induction at 0.5 µM (Renilla; [1]): 1.1
fold induction at 2 µM (Renilla; [1]): 1.1
fold induction at 10 µM (Renilla; [1]): 1.3
fold induction at 40 µM (Renilla; [1]): 1.4
fold induction at 0.5 µM (Renilla; [2]): 1
fold induction at 2 µM (Renilla; [2]): 1.1
fold induction at 10 µM (Renilla; [2]): 1.5
fold induction at 40 µM (Renilla; [2]): 1.5
fold induction at 0.5 µM (Renilla; [3]): 1
fold induction at 2 µM (Renilla; [3]): 1
fold induction at 10 µM (Renilla; [3]): 1.5
fold induction at 40 µM (Renilla; [3]): 2.4
fold induction at 0.5 µM (HEK293 pGL4; [4]): 1.2
fold induction at 2 µM (HEK293 pGL4; [5]): 1.4
fold induction at 10 µM (HEK293 pGL4; [6]): 3.3
fold induction at 40 µM (HEK293 pGL4; [7]): 0.7
fold induction at 0.5 µM (HEK293 pGL4; [8]): 1
fold induction at 2 µM (HEK293 pGL4; [9]): 1.2
fold induction at 10 µM (HEK293 pGL4; [10]): 1.7
fold induction at 40 µM (HEK293 pGL4; [11]): 0.8
fold induction at 0.5 µM (HEK293 pGL4; [12]): 1.2
fold induction at 2 µM (HEK293 pGL4; [13]): 1.2
fold induction at 10 µM (HEK293 pGL4; [14]): 1.8
fold induction at 40 µM (HEK293 pGL4; [15]): 2.6

Firefly LBD, cmpd/DMSO (mean) (NR2F6 LBD; 0.5 uM): 1.1
Firefly LBD, cmpd/DMSO (mean) (NR2F6 LBD; 2 uM): 1.4
Firefly LBD, cmpd/DMSO (mean) (NR2F6 LBD; 10 uM): 1.6
Firefly LBD, cmpd/DMSO (mean) (NR2F6 LBD; 40 uM): 1.9
Firefly F4, cmpd/DMSO (mean) (NR2F6; 0.5 uM): 1.1
Firefly F4, cmpd/DMSO (mean) (NR2F6; 2 uM): 1.1
Firefly F4, cmpd/DMSO (mean) (NR2F6; 10 uM): 2.0
Firefly F4, cmpd/DMSO (mean) (NR2F6; 40 uM): 2.7
F4, Firefly/Renilla for S/B(F4) > 3 (NR2F6; 10% FBS, 40 uM): 2.0
Firefly, F4/pGL4 for S/B(F4) > 3 (NR2F6; 10% FBS, 40 uM): 2.7
Firefly, F4, 1% FBS, cmpd/DMSO (mean) (NR2F6; 1% FBS, 0.5 uM): 1.0
Firefly, F4, 1% FBS, cmpd/DMSO (mean) (NR2F6; 1% FBS, 2 uM): 1.1
Firefly, F4, 1% FBS, cmpd/DMSO (mean) (NR2F6; 1% FBS, 10 uM): 1.6
Firefly, F4, 1% FBS, cmpd/DMSO (mean) (NR2F6; 1% FBS, 40 uM): 2.1
Firefly, F4, 10% FBS, cmpd/DMSO (mean) (NR2F6; 10% FBS, 0.5 uM): 1.6
Firefly, F4, 10% FBS, cmpd/DMSO (mean) (NR2F6; 10% FBS, 2 uM): 1.6
Firefly, F4, 10% FBS, cmpd/DMSO (mean) (NR2F6; 10% FBS, 10 uM): 1.1
Firefly, F4, 10% FBS, cmpd/DMSO (mean) (NR2F6; 10% FBS, 40 uM): 3.6
SMILES: O=S1(=O)C[C@H](NC2CCCCC2)[C@@H](S(=O)(=O)c2ccccc2)C1 [Compound D111]
fold induction at 0.5 µM (Renilla; [1]): 1
fold induction at 2 µM (Renilla; [1]): 1
fold induction at 10 µM (Renilla; [1]): 1.1
fold induction at 40 µM (Renilla; [1]): 1.4
fold induction at 0.5 µM (Renilla; [2]): 1.1
fold induction at 2 µM (Renilla; [2]): 1.1
fold induction at 10 µM (Renilla; [2]): 1.3
fold induction at 40 µM (Renilla; [2]): 1.7
fold induction at 0.5 µM (Renilla; [3]): 1.1
fold induction at 2 µM (Renilla; [3]): 1.1
fold induction at 10 µM (Renilla; [3]): 1.2
fold induction at 40 µM (Renilla; [3]): 1.8
fold induction at 0.5 µM (HEK293 pGL4; [4]): 0.9
fold induction at 2 µM (HEK293 pGL4; [5]): 1.4
fold induction at 10 µM (HEK293 pGL4; [6]): 1.5
fold induction at 40 µM (HEK293 pGL4; [7]): 1.8
fold induction at 0.5 µM (HEK293 pGL4; [8]): 1
fold induction at 2 µM (HEK293 pGL4; [9]): 1.2
fold induction at 10 µM (HEK293 pGL4; [10]): 1.2
fold induction at 40 µM (HEK293 pGL4; [11]): 1.2
fold induction at 0.5 µM (HEK293 pGL4; [12]): 1.2
fold induction at 2 µM (HEK293 pGL4; [13]): 1.2
fold induction at 10 µM (HEK293 pGL4; [14]): 1.3
fold induction at 40 µM (HEK293 pGL4; [15]): 1.3
